Measurements: patent US20070274947A1, “Antisense Oligonucleotides Directed to Ribonucleotide Reductase R1 and Uses Thereof in the Treatment of Cancer” (priority 2003, published 2007)
“Also recorded” adds a separate entry of the source.

Tests used:
[1] = system: Caki-1 human kidney cancer cells; assay: Caki-1 renal tumor growth in SCID/beige mice; format: in vivo; settings: SCID/beige mice (NK, T and B cell deficient); 10 mg/kg/2 days i.v.; 32 days
Procedure: To address whether SEQ ID NO:1 anti-tumor activity is NK mediated, tumor xenograft growth was assessed in SCID/beige mice that are NK, T and B cell deficient. Caki-1 human kidney cancer cells (5×10^6 cells in 100 μl of PBS) were subcutaneously injected into the right flank of 6-7 weeks old female SCID/beige mice. After the size of tumor reached an approximate volume of 100 mm^3, 7 days post tumor cell injection, SEQ ID NO:1 and SEQ ID NO:1-SCR were administered (10 mg/kg/2 days, i.v.). Control animals received saline alone for the same period. Caliper measurements at 1 week intervals were used to calculate tumor volumes. Each point in FIG. 3 (top) represents mean tumor volume calculated from 10 animals per experimental group. After 32 days the mice were sacrificed and the tumors weighed. Each bar in FIG. 3 (bottom) represents the mean tumor weight and standard error calculated for each treatment group.

[2] = system: Human taxol-resistant promyelocytic leukemia cells (HL-60); assay: Taxol-resistant promyelocytic leukemia (HL-60) growth in SCID mice; format: in vivo; settings: SEQ ID NO:1 10 mg/kg i.v. every other day, taxol 10 mg/kg i.p. once a week
Procedure: Human taxol-resistant promyelocytic leukemia cells (HL-60) (7×10^6 cells in 100 μl of PBS) were injected into the right flank of 6-7 weeks old female SCID mice. After the size of tumor reached an approximate volume of 100 mm^3, 10 days post tumor cell injection, SEQ ID NO:1 was administered by bolus infusion into the tail vein every other day at 10 mg/kg. Control animals received saline alone for the same period. The anti-tumor effect of SEQ ID NO:1 was further compared to that of taxol. Taxol was administered i.p. once a week at a dose of 10 mg/kg. Anti-tumor activity was estimated by the inhibition of tumor volume, which was measured with caliper (FIG. 17A). Each point represents mean tumor volume calculated from 10 animals per experimental group. In addition animals were sacrificed and tumor weights taken at the end of the study.

[3] = Phase I study, 14-day continuous intravenous infusion in patients with solid tumors or lymphoma
Procedure: To determine the maximal tolerated dose (MTD) and recommended Phase II dose of SEQ ID NO:1 in patients with solid tumors or lymphoma when administered as a 14-day continuous intravenous infusion.
Safety: Adverse events and laboratory evaluation. Dosage Selection and Dosing Interval:
The starting dose in the Phase I dose-escalation study is 6.0 mg/m^2/day (approximately 0.16 mg/kg/day) infused over 14 days.
DLT Definition: • Grade 4 neutropenia associated with fever or lasting 3 days or longer. • Platelet count <25,000 μl. • Any ≧ grade 3 coagulation abnormality (defined by PT and aPTT values). • Clinical hemorrhage ≧ grade 1. • Nausea/vomiting ≧ grade 3 despite maximal antiemetic therapy; diarrhea ≧ grade 3 despite maximal anti-diarrheal therapy. • Any other non-hematological toxicity ≧grade 3 with the exception of alopecia Interim Evaluation Status:
Preliminary evaluability assessment was performed. In the Phase I open label single arm study, SEQ ID NO:1 was administered in daily doses escalating from 6.0 mg/m^2 to 210.9 mg/m^2 in patients with solid tumors or lymphoma. SEQ ID NO:1 was administered as monotherapy by ambulatory intravenous infusion for 14 days in each 21 day cycle. […] Expected toxicities for agents in the same class as SEQ ID NO:1, phosphorothioate oligonucleotides, include fatigue, prolonged coagulation (PT/aPITI) times and elevated transaminase ALT/AST) levels.

[4] = system: MDA-MB435-To.1 human Taxol-resistant breast adenocarcinoma cells; assay: Taxol-resistant breast adenocarcinoma MDA-MB435-To.1 growth in SCID mice; format: in vivo
Procedure: MDA-MB435-To.1 human Taxol-resistant breast adenocarcinoma cells (4×10^6 cells in 100 μl of PBS) were injected into the fat pad (inside of right leg) of 6-7 weeks old female SCD mice. After the size of tumor reached an approximate volume of 100 mm^3, 20 days post tumor cell injection, SEQ ID NO:1 was administered by bolus infusion into the tail vein every other day at 10 mg/kg 15 times. Control animals received saline alone for the same period. Antitumor effect of SEQ ID NO:1 was further compared to that of Cisplatin or Taxol alone (FIG. 15A). Cisplatin was administered intravenously once a week for four weeks at a dose of 4 mg/kg. Taxol was administered intravenously once a week for four weeks at a dose of 20 mg/kg. Antitumor activities were estimated by the inhibition of tumor volume, which was measured with caliper (FIG. 15B). Each point represents mean tumor volume calculated from 9-10 animals per experimental group. […] As expected, treatment with Taxol during the same period was ineffective against Taxol-resistant tumor.
MDA-MB435-To.1 human Taxol-resistant breast adenocarcinoma cells (4×10^6 cells in 100 μl of PBS) were injected into the fat pad (inside of right leg) of 6-7 weeks old female CB-17 SCID mice. After the size of tumor reached an approximate volume of 100 mm^3, 17 days post tumor cell injection, SEQ ID NO:1 was administered by bolus infusion into the tail vein every other day at 10 mg/kg. Control animals received saline alone for the same period. Antitumor effect of SEQ ID NO:1 was compared to that of Cisplatin alone and in combination. Cisplatin was administered intravenously once a week for four weeks at a dose of 4 mg/kg. Antitumor activities were estimated by the inhibition of tumor volume, which was measured with caliper (FIG. 15B). Each point represents mean tumor volume calculated from 10 animals per experimental group. At the end of the study the animals were sacrificed and tumors weighed (FIG. 15C).

[5] = monkey, in vivo
[6] = cynomolgus monkey, in vivo
R1 mRNA = assay: Northern blot of R1 mRNA in HT-29 cells; format: cell-based, human; settings: 0.2 μM, four hours with Lipofectin, 16 hours recovery
Procedure: Total RNA was isolated using TRIzol reagent (GIBCO BRL) after cells were treated with 0.2 μM SEQ ID NO:1 for four hours in the presence of cationic lipid (Lipofectin reagent, GIBCO BRL), washed with PBS, and incubated for 16 hours to recover in normal medium containing 10% FBS. Northern blot analysis was performed as previously described (Hurta and Wright, 1995). RNA was subjected to electrophoresis through 1% formaldehyde agarose gels followed by transfer to nylon membranes. Blots were hybridized in the presence of a R1 fragment (McClarty et al, 1987). Glyceraldehyde-3-phosphate dehydrogenase (GAPDH) mRNA levels were simultaneously probed for RNA loading controls.

With “5′-CTCTAGCGTCTTAAAGCCGA-3′ (CTCTAGCGTCTTAAAGCCGA; chemistry not given here) [SEQ ID NO:1]” the “tumor volume and tumor weight” value [1] was “highly effective”, the “tumor growth / tumor weight” value [2] was “significant reduction of tumor weight” and the “drug related serious adverse events” value ([3]; human, in vivo) was “no drug related serious adverse events”. The tolerability ([3]; human, in vivo) was “well tolerated”, the “additional sporadic toxicities considered possibly related to study therapy” value ([3]; interim evaluation) was “Grade 3 hypokalemia, Grade 3 increased blood alkaline phosphatase and Grade 3 diarrhea” and the “patients with Grade 3 fatigue” value ([3]; interim evaluation) was “Two patients”. For the same substance, the “patients with Grade 3 increased ALT” value ([3]; interim evaluation) was “three patients”, the “patients with Grade 3 increased AST” value ([3]; interim evaluation) was “one patient” and the “patients with prolonged aPTT” value ([3]; interim evaluation) was “one patient”. For the same substance, the “maximum tolerated dose (MTD)” value ([3]; patients, no MTD seen up to and including this dose, interim) was at least 210.9 mg/m^2/day, the “delay in tumor growth compared with Cisplatin” value ([4]; first experiment, Cisplatin 4 mg/kg weekly as positive control) was “superior to the inhibitory effects observed with Cisplatin” and the “tumor weight / tumor growth” value ([4]; first experiment, start 20 days post injection, SEQ ID NO:1 10 mg/kg 15 times, Cisplatin 4 mg/kg, Taxol 20 mg/kg weekly for four weeks) was “significant reduction of tumor weight”. The “delay in tumor growth compared with Cisplatin” value ([4]; second experiment, CB-17 SCID mice) was “superior to the inhibitory effects observed with Cisplatin”, the “tumor weight / tumor growth” value ([4]; second experiment, CB-17 SCID mice, start 17 days post injection, SEQ ID NO:1 10 mg/kg every other day, Cisplatin 4 mg/kg weekly) was “significant reduction of tumor weight” and the “levels in the brain” value [5] was “very low or below the limits of detection”. The “tissue concentrations, rank order” value [5] was “kidney>liver>spleen>lymph node (monkey)>lung (monkey)>heart”, the “tissue levels upon discontinuation of treatment” value [5] was “decreased over time” and the “Cmax and AUC estimates versus dose” value [6] was “proportional with the administered dose”. For the same substance, the “mean Cl, high dose group compared to low dose group” value [6] was “slightly increased mean Cl value”, the “mean elimination t1/2, high dose group compared to low dose group” value [6] was “significantly larger mean elimination t1/2” and the “sex differences in pharmacokinetics” value [6] was “no clear observed sex differences”. The “R1 mRNA level” value (R1 mRNA) was “specifically decreases R1 mRNA; also recorded: significant decrease; also recorded: decreased R1 mRNA levels”.
